From paper PMC9571264 (Molecules, 2022)

Columns and labels:
[1] = system: Leukemia Cancer HL60; assay: MTT cytotoxicity assay, HL60; format: cell-based; settings: Homo sapiens, HL-60, 48 h, read-out: IC50 (µM) ± SEM, Leukemia Cancer HL60
Description: (§1) Cytotoxic activities of the synthesized derivatives were screened against leukemia (HL60), liver (HepG2), breast (MCF-7), and lung (A549) cancer cell lines and non-cancerous THLE2 and WISH cells at different concentrations [0.01–100 µM] for 48 h using the MTT assay (Table 1).
(§2) Human promyelocytic leukemia ”HL-60”, human hepatocellular carcinoma “HepG2”, human breast cancer “MCF-7”, human lung cancer “A549” cell lines, and two normal cell lines, THLE-2 as normal adult liver epithelial cells and WISH as normal epithelial cells, were obtained from American Type Culture Collection “Rockville, MD, USA”.
(§3) According to the manufacturer’s protocol, the cells were seeded in 96-well plates at a concentration of 5 × 10^4 cells per well (200 µL). Different concentrations of the tested compounds were used to test the cytotoxicity. […] A non-linear regression of curve fit was used to calculate the IC50.

[2] = system: Breast Cancer MCF-7; assay: MTT cytotoxicity assay, MCF-7; format: cell-based; settings: Homo sapiens, MCF7, 48 h, read-out: IC50 (µM) ± SEM, Breast Cancer MCF-7
Description: as §1, §2, §3

[3] = system: Normal Liver THLE2; assay: MTT cytotoxicity assay, normal THLE2; format: cell-based; settings: Homo sapiens, THLE-2, 48 h, read-out: IC50 (µM) ± SEM, Normal Liver THLE2
Description: as §1, §2, §3

[4] = system: Normal WISH Cells; assay: MTT cytotoxicity assay, normal WISH; format: cell-based; settings: 48 h, read-out: IC50 (µM) ± SEM, Normal WISH Cells
Description: as §1, §2, §3

[5] = system: HepG2 cancer cells; assay: Annexin-V-FITC/PI apoptosis/necrosis flow cytometry, HepG2; format: cell-based, human; settings: HepG2, IC50 = 13.14 μM, 48 h
Description: (See supplementary information for the detailed methodology of flow cytometric analyses, including “FITC/Annexin-V-FITC/PI differential apoptosis/necrosis”, “DNA content-flow cytometry aided cell cycle”, and “Caspase 3/7 green flow cytometry”).
Supplementary materials for detailed methodology
2.2.2.1. Flow cytometric analysis
2.2.2.1.1. FITC/Annexin-V-FITC/PI Differential Apoptosis/Necrosis Assessment Apoptosis and necrosis cell populations are determined using Annexin V-FITC apoptosis detection kit (Abcam Inc., Cambridge Science Park, Cambridge, UK) coupled with 2 fluorescent channels flowcytometry. After treatment with test compounds for 48 h, cells (10^5 cells) are collected by trypsinization and washed twice with ice-cold PBS (pH 7.4). Then, cells are incubated in dark with 0.5 ml of Annexin V-FITC/PI solution for 30 min in dark at room temperature according to manufacturer protocol. After staining, cells are injected via ACEA Novocyte™ flowcytometer (ACEA Biosciences Inc., San Diego, CA, USA) and analyzed for FITC and PI fluorescent signals using FL1 and FL2 signal detector, respectively (λex/em 488/530 […]
nm for FITC and λex/em 535/617 nm for PI). […]
NovoExpress™ software (ACEA Biosciences Inc., San Diego, CA, USA).
2.2.2.1.3. Caspase- 3/7 green flow cytometry assay
The ability of compounds 4 and 9 to induce the enzymatic activities of caspase 3/7 in HL60 and HepG2 respectively were assayed using caspase 3/7 green flow cytometry assay method. Briefly, control and the tested compounds treated cells (2.5x10^5/mL) were rinsed with ice cold PBS, cell lysates were prepared and subsequently protein

[6] = system: P53, Bax, Caspase 3, Caspase 7, PI3k, AKT, and Bcl-2 mRNA in HepG2 cells; assay: RT-PCR relative mRNA expression of apoptosis-related genes, HepG2; format: cell-based, human; settings: HepG2, IC50 = 13.14 μM, 48 h; versus β-actin; untreated control = 1
[7] = system: p-PI3K and p-Akt in HepG2 cells; assay: Western blotting p-PI3K and p-AKT, HepG2; format: cell-based, human; settings: HepG2, with respect to control untreated cells
Description: Western blotting analysis was conducted using untreated and treated HepG2 and HL60 cells. Cells were washed in PBS and lysed in a boiling sample buffer (62.5 mM Tris-HCl pH 6.8, 1% SDS, 10% glycerol, and 5% β-mercaptoethanol) for sodium dodecyl sulfate polyacrylamide gel electrophoresis (SDS-PAGE). The lysates were boiled for 5 min with a lamellae buffer, and the proteins were separated by SDS-PAGE and transferred to an Immobilon membrane (Millipore, Burlington, MA, USA). After incubation in 5% non-fat dry milk, Tris-HCL, 0.1% Tween 20 for 1 h, p-PI3K, and p-AKT, primary antibodies were added to one of the membranes containing specimen samples and incubated at 4 °C overnight. Appropriate secondary antibodies were incubated for 2 hr at room temperature. After being washed twice n 1× TBS-T, densitometric analysis of the immunoblots was performed to quantify the amounts of p-PI3K and p-AKT against the control sample by total protein normalization using Image analysis software on the ChemiDoc MP imaging system (version 3) produced by Bio-Rad (Hercules, CA, USA).
concentration was measured. Lysates were combined with reaction buffer and
incubated with Caspase 3/7 Detection Reagent (specific colorimetric substrates) at 37
°C for 6 h. The samples were estimated at λ 488 nm in BD FACS Calibur flow
2.2.2.3. […]
the immunoblots was performed to quantify the amounts of p-PI3K and p-AKT against […]

With `Cc1c(Br)c(=O)oc2c(Br)c(OC(=O)/C=C/c3ccccc3)c(Br)cc12` [Compound 8b, (2E)-3,6,8-Tribromo-4-methyl-2-oxo-2H-chromen-7-yl Cinnamate] the IC50 [1] was 69 ± 2.14 µM, the IC50 [2] was 7.35 ± 0.67 µM and the IC50 [3] was 86.5 ± 2.16 µM. For the same molecule, the IC50 [4] was 96.8 ± 3.21 µM, the “Increase of apoptotic cell death versus control” value [5] was 6.88 fold and the “Increase of necrosis-mediated cell death versus control” value [5] was 1.66 fold. The “Necrosis, cell percentage” value ([5]; control 0.96%) was 1.59%, the “AKT relative mRNA expression” value [6] was 0.72 fold and the “Bax relative mRNA expression” value [6] was 1.51 fold. The “Bcl-2 relative mRNA expression” value [6] was 0.75 fold, the “P53 relative mRNA expression” value [6] was 3.89 fold and the “PI3K relative mRNA expression” value [6] was 0.75 fold. For the same molecule, the “caspase 3 relative mRNA expression” value [6] was 4.63 fold, the “caspase 7 relative mRNA expression” value [6] was 3.63 fold and the “levels of p-PI3K and p-Akt” value [7] was “effectively suppressed”.
